Source: ChEMBL document CHEMBL4229414, “Design and synthesis of bridged piperidine and piperazine isosteres” (Bioorg Med Chem Lett, 2018)

What was measured:
[1] = target: T1, hERG (KCNH2) (Homo sapiens, UniProt Q12809); assay: (§1) Inhibition of human ERG at 3 uM relative to control
[2] = Efflux ratio of permeability in human Caco2 cells; assay type: ADME, cell-based; settings: caco-2
[3] = target: D(2) dopamine receptor (Homo sapiens) (UniProt P14416); assay: Agonist activity at human D2L receptor expressed in CHOK1 cells assessed as inhibition of receptor response at 10 uM by calcium flux assay relative to control; assay type: functional, cell-based
D(2) dopamine receptor (Homo sapiens), sequence (P14416 whole entry): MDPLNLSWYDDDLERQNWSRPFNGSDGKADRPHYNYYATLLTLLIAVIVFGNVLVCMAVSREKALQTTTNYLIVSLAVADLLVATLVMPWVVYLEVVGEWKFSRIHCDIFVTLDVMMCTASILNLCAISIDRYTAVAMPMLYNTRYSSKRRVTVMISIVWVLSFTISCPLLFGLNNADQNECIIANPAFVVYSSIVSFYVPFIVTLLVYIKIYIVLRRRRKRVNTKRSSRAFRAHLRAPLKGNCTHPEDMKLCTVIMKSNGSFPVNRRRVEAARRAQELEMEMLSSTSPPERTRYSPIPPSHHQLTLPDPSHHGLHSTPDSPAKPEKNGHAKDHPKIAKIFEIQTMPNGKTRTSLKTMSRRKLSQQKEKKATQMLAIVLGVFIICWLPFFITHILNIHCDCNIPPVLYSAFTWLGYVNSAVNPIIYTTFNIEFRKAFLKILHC

[4] = Stability in rat microsomes; assay type: ADME, Microsome; further: time not given here
[5] = Stability in human microsomes; assay type: ADME, Microsome; further: time not given here
[6] = target: D(2) dopamine receptor (Homo sapiens) (UniProt P14416); assay: Antagonist activity at human D2L receptor expressed in CHOK1 cells assessed as inhibition of dopamine-induced calcium flux at 0.1 uM by fluorescence assay relative to control; assay type: functional, cell-based
[7] = target: D(2) dopamine receptor (Homo sapiens) (UniProt P14416); assay: Agonist activity at human D2L receptor expressed in CHOK1 cells assessed as inhibition of receptor response at 0.1 uM by calcium flux assay relative to control; assay type: functional, cell-based
[8] = target: D(2) dopamine receptor (Homo sapiens) (UniProt P14416); assay: Antagonist activity at human D2L receptor expressed in CHOK1 cells assessed as inhibition of dopamine-induced calcium flux at 10 uM by fluorescence assay relative to control; assay type: functional, cell-based
[9] = Passive permeability in human Caco2 cells; assay type: ADME, cell-based; settings: caco-2
[10] = species: Homo sapiens; assay: Agonist activity at recombinant human D4.4 expressed in CHOK1 cells assessed as inhibition of receptor response at 0.1 uM by HTRF based cAMP assay relative to control; assay type: cell-based
[11] = target: T1, hERG (KCNH2); assay: (§2) Inhibition of human ERG at 1 uM relative to control
[12] = Stability in mouse microsomes; assay type: ADME, Microsome; further: time not given here
[13] = target: T1, hERG (KCNH2); assay: (§3) Inhibition of human ERG at 10 uM relative to control
[14] = species: Homo sapiens; assay: Agonist activity at recombinant human D4.4 expressed in CHOK1 cells assessed as inhibition of receptor response at 10 uM by HTRF based cAMP assay relative to control; assay type: cell-based
[15] = target: T2, Voltage-gated inwardly rectifying potassium channel KCNH2 (Homo sapiens, UniProt Q12809); assay: as §1; settings: 3 µM
T2 sequence (Q12809 whole entry): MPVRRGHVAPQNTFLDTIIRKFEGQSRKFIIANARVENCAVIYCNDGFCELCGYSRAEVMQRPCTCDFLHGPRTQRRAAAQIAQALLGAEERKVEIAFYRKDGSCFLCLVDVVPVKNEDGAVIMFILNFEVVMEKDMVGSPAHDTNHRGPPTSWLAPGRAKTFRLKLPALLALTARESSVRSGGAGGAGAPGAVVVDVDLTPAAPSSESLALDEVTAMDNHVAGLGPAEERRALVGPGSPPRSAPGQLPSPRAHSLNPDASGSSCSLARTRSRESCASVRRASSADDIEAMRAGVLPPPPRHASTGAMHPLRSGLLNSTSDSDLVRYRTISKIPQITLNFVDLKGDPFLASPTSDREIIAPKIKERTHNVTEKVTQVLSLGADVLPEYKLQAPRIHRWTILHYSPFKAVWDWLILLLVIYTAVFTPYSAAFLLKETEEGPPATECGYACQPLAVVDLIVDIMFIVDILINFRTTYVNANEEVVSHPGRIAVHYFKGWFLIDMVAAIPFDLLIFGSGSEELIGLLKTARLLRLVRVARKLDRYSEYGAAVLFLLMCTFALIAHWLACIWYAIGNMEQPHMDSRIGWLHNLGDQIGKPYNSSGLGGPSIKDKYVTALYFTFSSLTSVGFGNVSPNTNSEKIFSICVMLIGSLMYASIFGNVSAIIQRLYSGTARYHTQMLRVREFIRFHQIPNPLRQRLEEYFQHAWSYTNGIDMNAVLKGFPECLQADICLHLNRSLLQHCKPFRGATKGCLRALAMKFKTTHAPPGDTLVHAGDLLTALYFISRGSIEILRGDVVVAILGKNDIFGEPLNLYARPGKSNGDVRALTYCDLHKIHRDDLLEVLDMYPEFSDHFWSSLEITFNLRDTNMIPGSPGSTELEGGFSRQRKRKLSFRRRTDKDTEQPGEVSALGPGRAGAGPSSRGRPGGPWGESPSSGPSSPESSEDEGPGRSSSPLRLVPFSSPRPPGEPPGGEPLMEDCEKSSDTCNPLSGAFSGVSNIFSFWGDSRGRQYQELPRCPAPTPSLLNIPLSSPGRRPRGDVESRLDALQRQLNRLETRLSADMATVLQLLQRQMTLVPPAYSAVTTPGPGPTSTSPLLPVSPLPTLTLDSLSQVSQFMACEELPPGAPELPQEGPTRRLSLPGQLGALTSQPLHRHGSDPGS

[16] = target: T2, Voltage-gated inwardly rectifying potassium channel KCNH2; assay: as §2; settings: 1 µM
[17] = target: T2, Voltage-gated inwardly rectifying potassium channel KCNH2; assay: as §3; settings: 10 µM

T1 sequence (Q12809 whole entry): as above

Compound | inhibition at 3 µM [1] | efflux ratio [2] | inhibition [3] | Stability [4] | Stability [5] | inhibition [6] | inhibition [7] | inhibition [8] | permeability [9] | inhibition [10] | inhibition at 1 µM [11] | Stability [12] | inhibition at 10 µM [13] | inhibition [14] | inhibition (INH) [15] | inhibition (INH) [16] | Ratio [2] | inhibition (INH) [17]
CCCN1[C@@H]2COC[C@H]1CN(c1ccccc1OC)C2 | 2% | 0.9 | 19% | 4% | 70% | 9% | 3% | 5% | 100% | 3% | 2% | 18% | 12% | 3% | – | – | – | –
CCCN1CCC(c2ccccc2OC)CC1 | 5.5% | 1 | 99% | 4% | 86% | -7% | 52% | 14% | 100% | 9% | 2% | 30% | 14% | 12% | – | – | – | –
CCCN1[C@H]2CC[C@H]1CC(c1ccc(OC)c(OC)c1)C2 (relative stereo) | 62% | 3.4 | 20% | 4% | 50% | 8% | 6% | 11% | 99% | -1% | 36% | 21% | 85% | 17% | – | – | – | –
CCCN1[C@H]2CC[C@H]1CC(O)(c1ccccc1OC)C2 (relative stereo) | 19% | 1.2 | -8% | 12% | 100% | – | – | – | 100% | – | 7% | 54% | 46% | – | – | – | – | –
CCCN1C[C@H]2OC[C@@H]1C[C@@]2(O)c1ccccc1OC | 4% | 3 | 16% | 53% | 66% | 4% | 25% | 4% | 100% | 4% | 3% | 18% | 6% | 15% | – | – | – | –
CCCN1[C@H]2CC[C@H]1CC(c1cc(OC)c(OC)c(OC)c1)C2 (relative stereo) | 40% | 5.6 | 4% | 4% | 100% | 12% | 0% | 8% | 99% | – | 20% | 5% | 66% | -1% | – | – | – | –
CCCN1[C@H]2CC[C@H]1CC(c1ccccc1OC)C2 (relative stereo; 8a) [listing 1 of 2 here] | – | 2.9 | – | 2% | 25% | – | – | – | 100% | – | – | 3% | 74% | – | 46% | 22% | – | –
CCCN1[C@H]2COC[C@H]1CC(c1ccccc1OC)C2 (relative stereo; 20) [listing 1 of 2 here] | – | – | 30% | – | – | 10% | 22% | 12% | – | 14% | – | – | – | – | – | – | – | –
CCCN1CCN(c2ccccc2OC)CC1 | 16% | 1.1 | 99% | 2% | 63% | – | 50% | -1% | 100% | 9% | 8% | 2% | 41% | 12% | – | – | – | –
CCCN1[C@H]2CC[C@H]1CC(c1cccc(OC)c1)C2 (relative stereo) | 54% | 2.6 | 32% | 2% | 4% | 12% | 9% | 13% | 100% | 4% | 30% | 3% | 81% | 16% | – | – | – | –
CCCN1[C@H]2COC[C@H]1CC(c1ccccc1OC)C2 (relative stereo; 16) [listing 1 of 2 here] | – | – | 11% | – | – | 21% | 4% | 34% | – | 3% | – | – | – | 20% | – | – | – | –
CCCN1[C@H]2COC[C@H]1CC(c1ccccc1OC)C2 (relative stereo; 16) [listing 2 of 2 here] | – | – | – | – | 35% | – | – | – | – | – | – | 7% | – | – | 17% | 6% | 3.1 | 39%
CCCN1[C@H]2CC[C@H]1CC(c1ccccc1OC)C2 (relative stereo; 4) [listing 1 of 2 here] | – | – | – | – | 62% | – | – | – | 99.7% | – | – | 6% | – | – | 25% | 10% | 4.1 | 56.5%
CCCN1C[C@H]2OC[C@@H]1C[C@@H]2c1ccccc1OC | 3% | 0.8 | 16% | 3% | 100% | – | 25% | – | 100% | – | 0% | 4% | 15% | – | – | – | – | –
CCCN1[C@H]2COC[C@H]1CC(c1ccccc1OC)C2 (relative stereo; 20) [listing 2 of 2 here] | 34% | 2.3 | – | 1% | 42% | – | – | – | 100% | – | – | 2% | – | – | – | 17% | – | 64%
CCCN1[C@H]2CC[C@H]1CC(c1ccccc1OC)C2 (relative stereo; 8a) [listing 2 of 2 here] | – | – | 35% | – | – | 14% | 2% | 29% | – | -3% | – | – | – | – | – | – | – | –
CCCN1[C@H]2CC[C@H]1CC(c1ccccc1OC)C2 (relative stereo; 4) [listing 2 of 2 here] | – | – | 0% | – | – | 19% | 8% | 22% | – | 10% | – | – | – | 11% | – | – | – | –
CCCN1C[C@H]2OC[C@@H]1C[C@]2(O)c1ccccc1OC | 5% | 0.6 | 3% | 15% | 100% | 12% | 6% | 16% | 100% | 6% | 4% | 55% | 14% | -6% | – | – | – | –
CCCN1C[C@H]2OC[C@@H]1C[C@H]2c1ccccc1OC | 9% | 0.8 | 7% | 3% | 41% | -6% | 4% | 13% | 100% | 5% | 3% | 9% | 22% | 21% | – | – | – | –
CCCN1[C@H]2CC[C@H]1CC(c1ccc(OC)cc1)C2 (relative stereo) | 78% | 3 | 40% | 2% | 8% | 0% | -1% | 9% | 100% | 9% | 58% | 5% | 93% | 21% | – | – | – | –
